Reference: ChEMBL document CHEMBL5303573, “Mapping human microbiome drug metabolism by gut bacteria and their genes” (Nature, 2019)

Assay: The drug is tested on Ruminococcus torques strain: ATCC27756 for biotransformation. The drug concentrations were measured before and after a 12-h incubation by liquid-chromatography-coupled mass spectrometry (LC–MS)
Type: ADME
Design: dose 2 uM, timepoint 0 vs 12 hours
Settings: 2 µM

Row | Structure (SMILES) | Bacterial Biotransformation
1 | C[C@@H](CO)NC(=O)[C@@H]1C=C2c3cccc4[nH]cc(c34)C[C@H]2N(C)C1.O=C(O)/C=C\C(=O)O [ERGONOVINE MALEATE] | Compound NOT metabolized
2 | CCN(CC)CCCC(C)Nc1c2ccc(Cl)cc2nc2ccc(OC)cc12 (stereo not given) [QUINACRINE] | Compound NOT metabolized
3 | CC(=O)CC(c1ccccc1)c1c(O)c2ccccc2oc1=O (stereo not given) [WARFARIN] | Compound NOT metabolized
4 | CCCN(CCC)CCc1cccc2c1CC(=O)N2 [ROPINIROLE] | Compound NOT metabolized

Assay: The drug is tested on Clostridium sporogenes strain: ATCC15579 for biotransformation. The drug concentrations were measured before and after a 12-h incubation by liquid-chromatography-coupled mass spectrometry (LC–MS)
Settings: 2 µM

Row | Structure (SMILES) | Bacterial Biotransformation
5 | CCN(CC)CCCC(C)Nc1c2ccc(Cl)cc2nc2ccc(OC)cc12 (stereo not given) [QUINACRINE] | Compound NOT metabolized
6 | CCCN(CCC)CCc1cccc2c1CC(=O)N2 [ROPINIROLE] | Compound NOT metabolized

Assay: The drug is tested on Coprococcus comes strain: ATCC27758 for biotransformation. The drug concentrations were measured before and after a 12-h incubation by liquid-chromatography-coupled mass spectrometry (LC–MS)
Type: ADME
Design: dose 2 uM, timepoint 0 vs 12 hours
Settings: 2 µM

Row | Structure (SMILES) | Bacterial Biotransformation
7 | C[C@@H](CO)NC(=O)[C@@H]1C=C2c3cccc4[nH]cc(c34)C[C@H]2N(C)C1.O=C(O)/C=C\C(=O)O [ERGONOVINE MALEATE] | Compound metabolized
8 | CCN(CC)CCCC(C)Nc1c2ccc(Cl)cc2nc2ccc(OC)cc12 (stereo not given) [QUINACRINE] | Compound NOT metabolized
9 | CC(=O)CC(c1ccccc1)c1c(O)c2ccccc2oc1=O (stereo not given) [WARFARIN] | Compound NOT metabolized
10 | CCCN(CCC)CCc1cccc2c1CC(=O)N2 [ROPINIROLE] | Compound NOT metabolized

Assay: The drug is tested on Odoribacter splanchnicus strain: fecal isolate for biotransformation. The drug concentrations were measured before and after a 12-h incubation by liquid-chromatography-coupled mass spectrometry (LC–MS)
Settings: 2 µM

Row | Structure (SMILES) | Bacterial Biotransformation
11 | C[C@@H](CO)NC(=O)[C@@H]1C=C2c3cccc4[nH]cc(c34)C[C@H]2N(C)C1.O=C(O)/C=C\C(=O)O [ERGONOVINE MALEATE] | Compound metabolized
12 | CCN(CC)CCCC(C)Nc1c2ccc(Cl)cc2nc2ccc(OC)cc12 (stereo not given) [QUINACRINE] | Compound NOT metabolized
13 | CC(=O)CC(c1ccccc1)c1c(O)c2ccccc2oc1=O (stereo not given) [WARFARIN] | Compound NOT metabolized

Settings: segatella copri, 12 h, 2 µM
Description: The drug is tested on Prevotella copri strain: DSM18205 for biotransformation. The drug concentrations were measured before and after a 12-h incubation by liquid-chromatography-coupled mass spectrometry (LC–MS)

Row | Structure (SMILES) | Bacterial Biotransformation
14 | C[C@@H](CO)NC(=O)[C@@H]1C=C2c3cccc4[nH]cc(c34)C[C@H]2N(C)C1.O=C(O)/C=C\C(=O)O [ERGONOVINE MALEATE] | Compound metabolized
15 | CCN(CC)CCCC(C)Nc1c2ccc(Cl)cc2nc2ccc(OC)cc12 (stereo not given) [QUINACRINE] | Compound NOT metabolized
16 | CCCN(CCC)CCc1cccc2c1CC(=O)N2 [ROPINIROLE] | Compound NOT metabolized

Settings: anaerostipes sp., 12 h, 2 µM
Description: The drug is tested on Anaerostipes sp. strain: fecal isolate for biotransformation. The drug concentrations were measured before and after a 12-h incubation by liquid-chromatography-coupled mass spectrometry (LC–MS)

Row | Structure (SMILES) | Bacterial Biotransformation
17 | C[C@@H](CO)NC(=O)[C@@H]1C=C2c3cccc4[nH]cc(c34)C[C@H]2N(C)C1.O=C(O)/C=C\C(=O)O [ERGONOVINE MALEATE] | Compound NOT metabolized
18 | CCN(CC)CCCC(C)Nc1c2ccc(Cl)cc2nc2ccc(OC)cc12 (stereo not given) [QUINACRINE] | Compound NOT metabolized
19 | CC(=O)CC(c1ccccc1)c1c(O)c2ccccc2oc1=O (stereo not given) [WARFARIN] | Compound NOT metabolized
20 | CCCN(CCC)CCc1cccc2c1CC(=O)N2 [ROPINIROLE] | Compound NOT metabolized

Assay: The drug is tested on Bacteroides xylanisolvens strain: DSM18836 for biotransformation. The drug concentrations were measured before and after a 12-h incubation by liquid-chromatography-coupled mass spectrometry (LC–MS)
Settings: 2 µM

Row | Structure (SMILES) | Bacterial Biotransformation
21 | C[C@@H](CO)NC(=O)[C@@H]1C=C2c3cccc4[nH]cc(c34)C[C@H]2N(C)C1.O=C(O)/C=C\C(=O)O [ERGONOVINE MALEATE] | Compound metabolized
22 | CCN(CC)CCCC(C)Nc1c2ccc(Cl)cc2nc2ccc(OC)cc12 (stereo not given) [QUINACRINE] | Compound NOT metabolized
23 | CCCN(CCC)CCc1cccc2c1CC(=O)N2 [ROPINIROLE] | Compound NOT metabolized

Assay: The drug is tested on Ruminococcus lactaris strain: ATCC29176 for biotransformation. The drug concentrations were measured before and after a 12-h incubation by liquid-chromatography-coupled mass spectrometry (LC–MS)
Settings: 2 µM

Row | Structure (SMILES) | Bacterial Biotransformation
24 | C[C@@H](CO)NC(=O)[C@@H]1C=C2c3cccc4[nH]cc(c34)C[C@H]2N(C)C1.O=C(O)/C=C\C(=O)O [ERGONOVINE MALEATE] | Compound metabolized
25 | CC(=O)CC(c1ccccc1)c1c(O)c2ccccc2oc1=O (stereo not given) [WARFARIN] | Compound NOT metabolized
26 | CCCN(CCC)CCc1cccc2c1CC(=O)N2 [ROPINIROLE] | Compound NOT metabolized

Assay: The drug is tested on Bacteroides vulgatus strain: ATCC8482 for biotransformation. The drug concentrations were measured before and after a 12-h incubation by liquid-chromatography-coupled mass spectrometry (LC–MS)
Settings: phocaeicola vulgatus, 2 µM

Row | Structure (SMILES) | Bacterial Biotransformation
27 | C[C@@H](CO)NC(=O)[C@@H]1C=C2c3cccc4[nH]cc(c34)C[C@H]2N(C)C1.O=C(O)/C=C\C(=O)O [ERGONOVINE MALEATE] | Compound metabolized
28 | CCN(CC)CCCC(C)Nc1c2ccc(Cl)cc2nc2ccc(OC)cc12 (stereo not given) [QUINACRINE] | Compound NOT metabolized
29 | CC(=O)CC(c1ccccc1)c1c(O)c2ccccc2oc1=O (stereo not given) [WARFARIN] | Compound metabolized
30 | CCCN(CCC)CCc1cccc2c1CC(=O)N2 [ROPINIROLE] | Compound NOT metabolized

Assay: The drug is tested on Eubacterium ventriosum strain: ATCC27560 for biotransformation. The drug concentrations were measured before and after a 12-h incubation by liquid-chromatography-coupled mass spectrometry (LC–MS)
Type: ADME
Design: dose 2 uM, timepoint 0 vs 12 hours
Settings: 2 µM

Row | Structure (SMILES) | Bacterial Biotransformation
31 | C[C@@H](CO)NC(=O)[C@@H]1C=C2c3cccc4[nH]cc(c34)C[C@H]2N(C)C1.O=C(O)/C=C\C(=O)O [ERGONOVINE MALEATE] | Compound NOT metabolized
32 | CCN(CC)CCCC(C)Nc1c2ccc(Cl)cc2nc2ccc(OC)cc12 (stereo not given) [QUINACRINE] | Compound NOT metabolized
33 | CC(=O)CC(c1ccccc1)c1c(O)c2ccccc2oc1=O (stereo not given) [WARFARIN] | Compound NOT metabolized
34 | CCCN(CCC)CCc1cccc2c1CC(=O)N2 [ROPINIROLE] | Compound NOT metabolized

Assay: The drug is tested on Providencia rettgeri strain: DSM1131 for biotransformation. The drug concentrations were measured before and after a 12-h incubation by liquid-chromatography-coupled mass spectrometry (LC–MS)
Type: ADME
Design: dose 2 uM, timepoint 0 vs 12 hours
Settings: 2 µM

Row | Structure (SMILES) | Bacterial Biotransformation
35 | C[C@@H](CO)NC(=O)[C@@H]1C=C2c3cccc4[nH]cc(c34)C[C@H]2N(C)C1.O=C(O)/C=C\C(=O)O [ERGONOVINE MALEATE] | Compound NOT metabolized
36 | CC(=O)CC(c1ccccc1)c1c(O)c2ccccc2oc1=O (stereo not given) [WARFARIN] | Compound NOT metabolized
37 | CCCN(CCC)CCc1cccc2c1CC(=O)N2 [ROPINIROLE] | Compound NOT metabolized

Assay: The drug is tested on Dorea formicigenerans strain: ATCC27755 for biotransformation. The drug concentrations were measured before and after a 12-h incubation by liquid-chromatography-coupled mass spectrometry (LC–MS)
Settings: 2 µM

Row | Structure (SMILES) | Bacterial Biotransformation
38 | C[C@@H](CO)NC(=O)[C@@H]1C=C2c3cccc4[nH]cc(c34)C[C@H]2N(C)C1.O=C(O)/C=C\C(=O)O [ERGONOVINE MALEATE] | Compound metabolized
39 | CCN(CC)CCCC(C)Nc1c2ccc(Cl)cc2nc2ccc(OC)cc12 (stereo not given) [QUINACRINE] | Compound NOT metabolized
40 | CC(=O)CC(c1ccccc1)c1c(O)c2ccccc2oc1=O (stereo not given) [WARFARIN] | Compound NOT metabolized
41 | CCCN(CCC)CCc1cccc2c1CC(=O)N2 [ROPINIROLE] | Compound NOT metabolized

Assay: The drug is tested on Bacteroides fragilis strain: HMW615 for biotransformation. The drug concentrations were measured before and after a 12-h incubation by liquid-chromatography-coupled mass spectrometry (LC–MS)
Settings: 2 µM

Row | Structure (SMILES) | Bacterial Biotransformation
42 | C[C@@H](CO)NC(=O)[C@@H]1C=C2c3cccc4[nH]cc(c34)C[C@H]2N(C)C1.O=C(O)/C=C\C(=O)O [ERGONOVINE MALEATE] | Compound metabolized
43 | CC(=O)CC(c1ccccc1)c1c(O)c2ccccc2oc1=O (stereo not given) [WARFARIN] | Compound metabolized
44 | CCCN(CCC)CCc1cccc2c1CC(=O)N2 [ROPINIROLE] | Compound NOT metabolized

Assay: The drug is tested on Bacteroides uniformis strain: ATCC8492 for biotransformation. The drug concentrations were measured before and after a 12-h incubation by liquid-chromatography-coupled mass spectrometry (LC–MS)
Settings: 2 µM

Row | Structure (SMILES) | Bacterial Biotransformation
45 | C[C@@H](CO)NC(=O)[C@@H]1C=C2c3cccc4[nH]cc(c34)C[C@H]2N(C)C1.O=C(O)/C=C\C(=O)O [ERGONOVINE MALEATE] | Compound metabolized
46 | CCN(CC)CCCC(C)Nc1c2ccc(Cl)cc2nc2ccc(OC)cc12 (stereo not given) [QUINACRINE] | Compound NOT metabolized
47 | CC(=O)CC(c1ccccc1)c1c(O)c2ccccc2oc1=O (stereo not given) [WARFARIN] | Compound NOT metabolized
48 | CCCN(CCC)CCc1cccc2c1CC(=O)N2 [ROPINIROLE] | Compound NOT metabolized

Assay: The drug is tested on Enterococcus faecalis strain: V583 for biotransformation. The drug concentrations were measured before and after a 12-h incubation by liquid-chromatography-coupled mass spectrometry (LC–MS)
Settings: 2 µM

Row | Structure (SMILES) | Bacterial Biotransformation
49 | C[C@@H](CO)NC(=O)[C@@H]1C=C2c3cccc4[nH]cc(c34)C[C@H]2N(C)C1.O=C(O)/C=C\C(=O)O [ERGONOVINE MALEATE] | Compound NOT metabolized
50 | CC(=O)CC(c1ccccc1)c1c(O)c2ccccc2oc1=O (stereo not given) [WARFARIN] | Compound NOT metabolized
51 | CCCN(CCC)CCc1cccc2c1CC(=O)N2 [ROPINIROLE] | Compound NOT metabolized

Settings: akkermansia muciniphila, 12 h, 2 µM
Description: The drug is tested on Akkermansia muciniphila strain: ATCC BAA-835 for biotransformation. The drug concentrations were measured before and after a 12-h incubation by liquid-chromatography-coupled mass spectrometry (LC–MS)

Row | Structure (SMILES) | Bacterial Biotransformation
52 | C[C@@H](CO)NC(=O)[C@@H]1C=C2c3cccc4[nH]cc(c34)C[C@H]2N(C)C1.O=C(O)/C=C\C(=O)O [ERGONOVINE MALEATE] | Compound NOT metabolized
53 | CCN(CC)CCCC(C)Nc1c2ccc(Cl)cc2nc2ccc(OC)cc12 (stereo not given) [QUINACRINE] | Compound NOT metabolized
54 | CC(=O)CC(c1ccccc1)c1c(O)c2ccccc2oc1=O (stereo not given) [WARFARIN] | Compound NOT metabolized
55 | CCCN(CCC)CCc1cccc2c1CC(=O)N2 [ROPINIROLE] | Compound NOT metabolized

Settings: roseburia intestinalis, 12 h, 2 µM
Description: The drug is tested on Roseburia intestinalis strain: L1-82 for biotransformation. The drug concentrations were measured before and after a 12-h incubation by liquid-chromatography-coupled mass spectrometry (LC–MS)

Row | Structure (SMILES) | Bacterial Biotransformation
56 | C[C@@H](CO)NC(=O)[C@@H]1C=C2c3cccc4[nH]cc(c34)C[C@H]2N(C)C1.O=C(O)/C=C\C(=O)O [ERGONOVINE MALEATE] | Compound NOT metabolized
57 | CCN(CC)CCCC(C)Nc1c2ccc(Cl)cc2nc2ccc(OC)cc12 (stereo not given) [QUINACRINE] | Compound NOT metabolized
58 | CC(=O)CC(c1ccccc1)c1c(O)c2ccccc2oc1=O (stereo not given) [WARFARIN] | Compound NOT metabolized
59 | CCCN(CCC)CCc1cccc2c1CC(=O)N2 [ROPINIROLE] | Compound NOT metabolized

Assay: The drug is tested on Bifidobacterium ruminantium strain: fecal isolate for biotransformation. The drug concentrations were measured before and after a 12-h incubation by liquid-chromatography-coupled mass spectrometry (LC–MS)
Settings: 2 µM

Row | Structure (SMILES) | Bacterial Biotransformation
60 | C[C@@H](CO)NC(=O)[C@@H]1C=C2c3cccc4[nH]cc(c34)C[C@H]2N(C)C1.O=C(O)/C=C\C(=O)O [ERGONOVINE MALEATE] | Compound NOT metabolized
